In patent US20250255945A1, “CLICK CHEMISTRY HLA POLYPEPTIDES” (IMMUNEO Therapeutics GmbH, priority 2024, published 2025):

Tested on: prostate cancer with bone metastases
Assay: Case study Example 4: immunization of a subject with prostate cancer and bone metastases with PrCa-PC1/PrCa-PC2
Assay type: in vivo, human
Conditions: after 70 days
Method: • Subject: A person • Date of Admission: Oct. 4, 2022 • Complaints: Urinary urgency, interrupted urination, nocturia, and erectile dysfunction
• PSA Level: 99.77 ng/mL (See FIG. 9A) • MRI Examination: Moderately enlarged prostate with extensive, organ-crossing, and infiltrating prostate cancer on the left side. • PSMA-PET Examination: Involvement of the middle gland and apex on the left periphery, infiltrating the left seminal vesicles. No PSMA positive lymph node metastases found, but sclerotic bone metastases reported (See FIG. 9B). • First Biopsies: Taken from bone metastases in the area of the lateral mass of the left sacrum. Pathological assessment confirmed malignant prostatic origin.
(§1) • Step (a): the pharmaceutical composition comprising the 12 synthetic HLA tumor antigen polypeptides and XS15 as adjuvant were synthesized as chemical peptides, • Step (b): the 12 HLA tumor antigen polypeptides were mixed in 25% DMSO/H2O application solution and divided multiple vial units of 1 nil each, Dose per HLA tumor antigen polypeptide: 300 μg
as §1, with “7” for “12”, “ml” for “nil”, “μg […]” for “μg”

Row | Compound | tolerability (discontinuation)
1 | CC(O)(CS(=O)(=O)c1ccc(F)cc1)C(=O)Nc1ccc(C#N)c(C(F)(F)F)c1 (stereo not drawn) [Bicalutamide] | side effects

Tested on: peripheral blood mononuclear cells (PBMCs)
Assay: IFN-γ ELISPOT assay (ex vivo) with subject PBMCs
Assay type: cell-based, human
Conditions: Example 3 subject PBMCs; compared to the HTAPP without DACP
Method: IFNγ ELISpot analysis (for protocol see A. Lalvani, R. Brookes, S. Hambleton, W. J. Britton, A. V. S. Hill, A. J. McMichael, J Exp Med 1997; 186 (6): 859-865) was performed ex vivo (without further in vitro culturing for expansion) using PBMCs depleted of CD4+ and enriched for CD8+ T cells (CD8+ effectors), or depleted of CD8+ and enriched for CD4+ T cells (CD4+ effectors). Tests were performed in duplicate and with a positive and negative control, Multiscreen filter plates (Merck Millipore) pre-coated with IFNγ-specific antibodies (ELISpotPro kit, Mabtech). 267.000 Cells were used per plate. Plates were scanned using an AID Classic Robot ELISPOT Reader and analyzed by AID ELISPOT 7.0 software (AID Autoimmun Diagnostika). Antigen Peptides (except negative and positive control group) were done in duplicates, spot counts were taken as mean values of each duplicate.
The immunogenicity of each of the six peptides was analyzed by IFN-γ secretion by subject peripheral blood mononuclear cells (PBMCs) using ELIspot assay. […]
The immunogenicity of each peptide was assessed in peripheral blood mononuclear cells (PBMCs) from patients and using the IFN-γ-ELISPOT assay. ELISPOT results were considered positive if the number of spots was at least 2-fold higher than the negative control (medium) and at least 50 spots were detected. […] We also tested the effect of delivery aiding peptides (DACP-1) and peptide extension by overlapping tandemization and tandemization on the immunogenicity of the epitopes.

Row | Compound | response rate in ELIspot on addition of a DACP
2 | LQEFRRFQDPGRIVAIVRQIKIWFQNRRMKWKK [SEQ-ID-No.: 20] | increase in the response rate
3 | KLVVVGAVGVGKSALTIRQIKIWFQNRRMKWKK [SEQ-ID-No.: 18] | increase in the response rate

Same assay, conditions: Table 1, HTAPPs; response in ELISPOT experiments

Row | Compound | Elispot [nspots/pM]
4 | 3 (LQEFRRFQDPGRIVAIV) [compound 3] | 246,0 nspots/pM
5 | 2 (LANSPDLSHLAYYVTKVKEEDAF) [compound 2] | 419,5 nspots/pM
6 | 14 (SPRQCSSWTLAAYKLAAFPTSL) [compound 14] | 137,5 nspots/pM
7 | 13 (LSKNLVAQISALALQLAAYGNSITGIISSVLGHIS) [compound 13] | 205 nspots/pM
8 | 17 (QSYPGSASLAAYSGMPRISKL) [compound 17] | 202,5 nspots/pM
9 | 10 (LFKDLGLPARTVSTTF) [compound 10] | 143,5 nspots/pM

Same assay, conditions: Table 2, HTAPP-DACP; response in ELISPOT experiments

Row | Compound | Elispot [nspots/pM]
10 | 18 (KLVVVGAVGVGKSALTIRQIKIWFQNRRMKWKK) [compound 18] | 447,5 nspots/pM
11 | 29 (HRCATITHLLAAYYLVLNFNKKRQIKIWFQNRRMKWKK) [compound 29] | 342,5 nspots/pM
12 | 22 (IKPRILGFDTPHYWLCRQIKIWFQNRRMKWKK) [compound 22] | 477,0 nspots/pM

Same assay, conditions: Table 4, HTAPP-DACP related to group therapy

Row | Compound | Elispot [nspots/pM]
13 | 50 (LLGRNSFEVCVCACPGRDRRQIKIWFQNRRMKWKK) [compound 50] | 256,7 nspots/pM
14 | 49 (LLDILDTAGHEEYSAMRDQRQIKIWFQNRRMKWKK) [compound 49] | 161,7 nspots/pM
15 | 32 (AAKALMSAFYTFRYPLSLRQIKIWFQNRRMKWKK) [compound 32] | 75,8 nspots/pM
16 | 45 (KIGDFGLATEKSRWSGSHQRQIKIWFQNRRMKWKK) [compound 45] | 55,0 nspots/pM
17 | 48 (KVKIPVAIKTSPKANKEIRQIKIWFQNRRMKWKK) [compound 48] | 39,2 nspots/pM

Same assay, conditions: Table 5, HTAPP-DACP related to group therapy

Row | Compound | Elispot [nspots/pM]
18 | 65 (TEYKLVVVGAAGVGKSALTIQRQIKIWFQNRRMKWKK) [compound 65] | 22,5 nspots/pM

Same assay, conditions: Table 6, further HTAPPs, HTAPP-DACPs and reference sequences

Row | Compound | Elispot [nspots/pM]
19 | 70 (ESGCEERGAAMIQTVDPAAHRQIKIWFQNRRMKWKK) [compound 70] | 153,5 nspots/pM
20 | 76 (PQELWHFLTQNLSLPN) [compound 76] | 470,5 nspots/pM
21 | 77 (KKIRKPRTIYSSLQLQA) [compound 77] | 148,0 nspots/pM
